# In PubChem BioAssay (NCI):
#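 Each compound was tested at five concentrations against cells in 96-well plates for 48 hours. TGI denotes the concentration required for complete inhibition of growth.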
# Legend:
# Experiment in all cases: NCI-60 cell line screen, 48 h
# [1] = test system: 786-0 renal
# [2] = test system: A498 renal
# [3] = test system: A549 NSCLC
# [4] = test system: ACHN renal
# [5] = test system: BT-549 breast
# [6] = test system: CAKI-1 renal
# [7] = test system: CCRF-CEM leukemia
# [8] = test system: COLO 205 colon
# [9] = test system: DU-145 prostate
# [10] = test system: EKVX NSCLC
# [11] = test system: HCC-2998 colon
# [12] = test system: HCT-116 colon
# [13] = test system: HCT-15 colon
# [14] = test system: HL-60(TB) leukemia
# [15] = test system: HOP-62 NSCLC
# [16] = test system: HOP-92 NSCLC
# [17] = test system: HS 578T breast
# [18] = test system: HT29 colon
# [19] = test system: IGROV1 ovarian
# [20] = test system: K-562 leukemia
# [21] = test system: KM12 colon
# [22] = test system: LOX IMVI melanoma
# [23] = test system: M14 melanoma
# [24] = test system: MALME-3M melanoma
# [25] = test system: MCF7 breast
# [26] = test system: MDA-MB-231 breast
# [27] = test system: MDA-MB-435
# [28] = test system: MDA-N
# [29] = test system: MOLT-4 leukemia
# [30] = test system: NCI-H226 lung
# [31] = test system: NCI-H23 lung
# [32] = test system: NCI-H460 lung
# [33] = test system: NCI-H522 lung
# [34] = test system: NCI/ADR-RES ovarian
# [35] = test system: OVCAR-3 ovarian
# [36] = test system: OVCAR-4 ovarian
# [37] = test system: OVCAR-5 ovarian
# [38] = test system: OVCAR-8 ovarian
# [39] = test system: PC-3 prostate
# [40] = test system: RPMI-8226 leukemia
# [41] = test system: RXF 393 renal
# [42] = test system: SF-268 CNS
# [43] = test system: SF-295 CNS
# [44] = test system: SF-539 CNS
# [45] = test system: SK-MEL-2 melanoma
# [46] = test system: SK-MEL-28 melanoma
# [47] = test system: SK-MEL-5 melanoma
# [48] = test system: SK-OV-3 ovarian
# [49] = test system: SN12C renal
# [50] = test system: SNB-19 CNS
# [51] = test system: SNB-75 CNS
# [52] = test system: SR leukemia
# [53] = test system: SW-620 colon
# [54] = test system: T-47D breast
# [55] = test system: TK-10 renal
# [56] = test system: U251 CNS
# [57] = test system: UACC-257 melanoma
# [58] = test system: UACC-62 melanoma
# [59] = test system: UO-31 renal
compound,measurement,setting,value
COc1cc(CN2CCCCC2)cc2cc(C(=O)O)c(=O)oc12,TGI,[1],> 100 µM
same,TGI,[2],> 100 µM
same,TGI,[3],> 100 µM
same,TGI,[4],> 100 µM
same,TGI,[5],> 100 µM
same,TGI,[6],> 100 µM
same,TGI,[7],> 100 µM
same,TGI,[8],> 100 µM
same,TGI,[9],> 100 µM
same,TGI,[10],> 100 µM
same,TGI,[11],> 100 µM
same,TGI,[12],> 100 µM
same,TGI,[13],> 100 µM
same,TGI,[14],> 100 µM
same,TGI,[15],> 100 µM
same,TGI,[16],> 100 µM
same,TGI,[17],> 100 µM
same,TGI,[18],> 100 µM
same,TGI,[19],> 100 µM
same,TGI,[20],> 100 µM
same,TGI,[21],> 100 µM
same,TGI,[22],> 100 µM
same,TGI,[23],> 100 µM
same,TGI,[24],> 100 µM
same,TGI,[25],> 100 µM
same,TGI,[26],> 100 µM
same,TGI,[27],> 100 µM
same,TGI,[28],> 100 µM
same,TGI,[29],> 100 µM
same,TGI,[30],> 100 µM
same,TGI,[31],> 100 µM
same,TGI,[32],> 100 µM
same,TGI,[33],> 100 µM
same,TGI,[34],> 100 µM
same,TGI,[35],> 100 µM
same,TGI,[36],> 100 µM
same,TGI,[37],> 100 µM
same,TGI,[38],> 100 µM
same,TGI,[39],> 100 µM
same,TGI,[40],> 100 µM
same,TGI,[41],> 100 µM
same,TGI,[42],> 100 µM
same,TGI,[43],> 100 µM
same,TGI,[44],> 100 µM
same,TGI,[45],> 100 µM
same,TGI,[46],> 100 µM
same,TGI,[47],> 100 µM
same,TGI,[48],> 100 µM
same,TGI,[49],> 100 µM
same,TGI,[50],> 100 µM
same,TGI,[51],> 100 µM
same,TGI,[52],> 100 µM
same,TGI,[53],> 100 µM
same,TGI,[54],> 100 µM
same,TGI,[55],> 100 µM
same,TGI,[56],> 100 µM
same,TGI,[57],> 100 µM
same,TGI,[58],> 100 µM
same,TGI,[59],> 100 µM
O=C1CSC(c2cccs2)N1c1nc2cc3sc(N4C(=O)CSC4c4cccs4)nc3cc2s1 (stereo not drawn),TGI,[1],> 50 µM
same,TGI,[2],> 50 µM
same,TGI,[3],> 50 µM
same,TGI,[4],> 50 µM
same,TGI,[5],> 50 µM
same,TGI,[6],> 50 µM
same,TGI,[7],> 50 µM
same,TGI,[8],3.18 µM
same,TGI,[9],> 50 µM
same,TGI,[10],> 50 µM
same,TGI,[11],> 50 µM
same,TGI,[12],> 50 µM
same,TGI,[13],> 50 µM
same,TGI,[14],> 50 µM
same,TGI,[15],> 50 µM
same,TGI,[16],> 50 µM
same,TGI,[17],> 50 µM
same,TGI,[18],> 50 µM
same,TGI,[19],> 50 µM
same,TGI,[20],> 50 µM
same,TGI,[21],> 50 µM
same,TGI,[22],> 50 µM
same,TGI,[23],> 50 µM
same,TGI,[24],> 50 µM
same,TGI,[25],> 50 µM
same,TGI,[26],> 50 µM
same,TGI,[27],> 50 µM
same,TGI,[28],> 50 µM
same,TGI,[29],> 50 µM
same,TGI,[30],26.8 µM
same,TGI,[31],> 50 µM
same,TGI,[32],> 50 µM
same,TGI,[33],> 50 µM
same,TGI,[34],> 50 µM
same,TGI,[35],> 50 µM
same,TGI,[36],> 50 µM
same,TGI,[37],> 50 µM
same,TGI,[38],> 50 µM
same,TGI,[39],> 50 µM
same,TGI,[40],> 50 µM
same,TGI,[41],> 50 µM
same,TGI,[42],> 50 µM
same,TGI,[43],> 50 µM
same,TGI,[44],3.6 µM
same,TGI,[45],> 50 µM
same,TGI,[46],> 50 µM
same,TGI,[47],> 50 µM
same,TGI,[48],> 50 µM
same,TGI,[49],> 50 µM
same,TGI,[50],> 50 µM
same,TGI,[51],> 50 µM
same,TGI,[52],> 50 µM
same,TGI,[53],> 50 µM
same,TGI,[54],> 50 µM
same,TGI,[55],> 50 µM
same,TGI,[56],> 50 µM
same,TGI,[57],> 50 µM
same,TGI,[58],> 50 µM
same,TGI,[59],> 50 µM
